These results are taken from publication PMC9119314 (Frontiers in Pharmacology, 2022).

Like-named read-outs stand apart in the source and are kept apart here.

For data set [1], the system named is P. knowlesi A1-H.1. Kind of data set: In vitro antiplasmodial activity, P. knowlesi A1-H.1 (SYBR Green I). Format: cell-based, Plasmodium knowlesi. The note with it: 27 h. Here is the method:
P. falciparum (3D7 clone) and P. knowlesi (A1-H.1 clone) were maintained in culture in RPMI 1640 supplemented with 25 mM HEPES, 25 mM NaHCO3, 10 mM D-glucose, 2 mM L-glutamine, 50 mg/L hypoxanthine, 25 mg/L gentamicin sulfate, 5 g/L Albumax II, and 10% (v/v) equine serum (Thermo Fisher Scientific, 26-050-088). The P. falciparum (3D7) and P. knowlesi (A1-H.1) parasites were grown in human A^+ red blood cells (National Health Blood and Transplant, United Kingdom). The parasites were incubated in sealed flasks at 37°C under a culture gas mixture of 96% N2, 3% CO2, and 1% O2. ([van Schalkwyk et al., 2019]). The compounds were initially dissolved in DMSO prior to diluting in RPMI. All experiments were initiated using unsynchronized parasites with both the parasitemia and hematocrit set to 1%. Drug susceptibility assays were set up in 96-well, flat-bottom microplates in a final volume of 200 μL, as described previously ([van Schalkwyk et al., 2017]). The controls were included for the background fluorescence (0% viability; parasites exposed to a supralethal 10 μM chloroquine concentration) and 100% growth (parasites in drug-free wells). The plates were incubated for one complete life cycle (27 h for P. knowlesi or 48 h for P. falciparum in vitro) at 37°C in a modular incubation chamber (Billups-Rothenburg Inc.) under the culture gas. Upon termination of the assay, the plates were stored at −20°C overnight. The SYBR Green I fluorescent method was used to measure parasite survival ([Bennett et al., 2004]; [Smilkstein et al., 2004]). After the microplates were thawed, 100 μL from each well was transferred into a duplicate plate. To this was added 100 μL of SYBR green solution [SYBR Green I (Thermo Fisher Scientific, S7563), diluted 1:5000 in a lysis buffer made of 20 mM Tris, 5 mM EDTA, 0.008% (w/v) saponin, 0.08% (v/v) Triton X-100, pH 7.5]. The plates were stored in the dark for 1 h before fluorescence was read at a 490 nm excitation wavelength and a 520 nm emission wavelength on a Spectramax M3 microplate reader (Molecular Devices) ([van Schalkwyk et al., 2017]). The background fluorescence (wells with parasites at 0% viability) was subtracted from all drug assay wells, and the parasite proliferation was determined as a percentage of the fluorescence in the drug-free control wells.

The test system of data set [2] is A2780/WT cells. Kind of data set: Chemosensitivity MTT assay, A2780 wild type. Format: cell-based, human. Conditions: Homo sapiens, A2780, 96 h, ± SE, read-out: Activity against A2780/WT cells, IC50. Here is the method:
The chemosensitivity of compounds 3–6 was assessed in the wild-type immortalized human ovarian adenocarcinoma cell line A2780 and its daughter cell lines, which are resistant to the standard cancer chemotherapeutics doxorubicin (A2780/ADR) and cisplatin (A2780/CIS, all cell lines from ECACC, Salisbury, United Kingdom). A modified MTT assay was used ([Shnyder et al., 2008]). Cells (2 × 10^4/ml) were inoculated into each well of a 96-well plate and incubated for 24 h at 37°C in a humidified atmosphere containing 5% CO2. Compounds were then added at a range of concentrations to each well, and the plates were then incubated for a further 96 h. After 96 h, the culture medium was removed and 200 μL of 0.5 mg ml^–1 MTT solution (Sigma) in the complete medium was added to each well. Following a further 4 h incubation, the solution was removed from each well and 150 μL of DMSO was added to solubilize the formazan crystals resulting from MTT conversion. The absorbance values for the resulting solutions were read at 540 nm on an Azure 96-well microplate reader (Azure Biosynstems Inc.), and the cell survival was calculated as the absorbance of treated cells divided by the control.
(Formazan colour is commonly taken as a measure of viable cells.)

For data set [3], the system named is T. brucei bloodstream forms (strain 427, derivative 221). Kind of data set: In vitro activity against T. brucei bloodstream forms (resazurin). Format: cell-based, Trypanosoma brucei. Conditions: Trypanosoma brucei, bloodstream forms, hydrochloride salts except 6 (citrate), ± SE; for IC50: 64 h, 48 h + 16 h resazurin. On the procedure:
(§1) Bloodstream form T. brucei (strain 427, derivative 221) was maintained in modified Iscove’s medium, as described previously ([Taylor et al., 2013]). […] The parasites were diluted to 1 × 10^4 ml^−1, the compound was added at a range of concentrations, and the plates were incubated at 37°C in 5% CO2 for 48 h. Resazurin was then added to each well, and the plates were incubated for a further 16 h. Fluorescence intensities were determined using a BMG FLUOstar Omega plate reader (excitation 545 nm, emission 590 nm), and data were analyzed using Graph Pad Prism 9.0 software. […]
(Alamar Blue is a resazurin reagent that responds to reducing activity.)

Assay in data set [4]: as above
Format: cell-based, Trypanosoma brucei. The note with it: human; SI compared with Hep G cells (Table 1); read-out: Selectivity index (SI), T. brucei compared with cytotoxicity to Hep G cells (converted). On the procedure: as §1

For data set [5], the system named is Hep G2-A16-CD81 cells. Kind of data set: Hep G2 cellular toxicity counter-screen (CellTiterGlo). Format: cell-based. The note with it: HepG2-A16-CD81, no sporozoites, ± SE, read-out: Activity against Hep G cells. On the procedure:
(§2) Briefly, 3000 Hep G2-A16-CD81 cells/well were seeded in 1536-well plates (Greiner Bio). 50 nL of the test and control compound diluted in DMSO was added and incubated for 24 h. […] The plates were centrifuged for 5 min at 330 × g and incubated at 37°C. Forty-eight hours post infection, 2 μL of luciferin reagent (Promega BrightGlo) was added to each well, and the luciferase activity was detected using a Perkin Elmer Envision plate reader. […] To counter-screen for cellular toxicity, Hep G2-A16-CD81 cells were seeded as above for the sporozoite liver-stage assay but in the absence of sporozoites. Toxicity measurements were performed by adding Promega CellTiterGlo® (2 μL), followed by luminescence measurements. Curve fitting was done as described above using puromycin (25 μM) as a positive control and DMSO as negative control wells.
Background: The purpose of a counterscreen is to sort out artefacts and off-target activity.

In data set [6] the test system is P. berghei sporozoites. Kind of data set: P. berghei liver-stage assay (sporozoites in Hep G2-A16-CD81 cells, luciferase). Format: cell-based, Plasmodium berghei. Conditions: for IC50: Plasmodium berghei, HepG2-A16-CD81, sporozoites in Hep G2-A16-CD81 cells, 48 h post infection, ± SE, read-out: Activity against the P. berghei liver stage, IC50. Here is the method:
as §2

The mark [7] stands for this setting: Plasmodium knowlesi, read-out: Activity against P. knowlesi A1-H.1, IC50, 27 h, ± SD.

What is called IC90 is the concentration at which the effect reaches the 90% level. For `C[n+]1c2ccccc2cc2[n-]c3c(Br)cc(Br)cc3c21` [Compound 4, 7,9-Dibromocryptolepine], the IC50 in data set [1] (setting [7]) turned out to be 1120 ± 450 nM; in data set [2], 200 ± 580 nM; in data set [3], 28.3 ± 0.5 nM; in data set [5] it was 6790 ± 920 nM; in data set [6], 5820 ± 260 nM. Also, the 90% effect concentration (IC90) in data set [3] came to 40.3 ± 6.1 nM. For the same molecule, the selectivity ratio at 48 h in data set [4] is 240. The “Selectivity index (SI), P. berghei liver stage with respect to Hep G cells” value in data set [6] amounted to 1.17.

As to `C[n+]1c2ccccc2cc2[n-]c3ccc(I)cc3c21` [Compound 5, 7-iodocryptolepine], the IC50 in data set [1] (setting [7]) came to 110 nM; in data set [1] (read-out: Activity against P. knowlesi A1-H.1, IC50, ± SD) it was 104 ± 40 nM; in data set [2], 60 ± 10 nM; in data set [3] it was 81.3 ± 2.5 nM; in data set [5], 6700 ± 500 nM; in data set [6] it was 14600 ± 420 nM. Moreover, the IC90 in data set [3] is 113 ± 11 nM. Besides, the selectivity ratio at 48 h in data set [4] was 82.4. Further, the “Selectivity index (SI), P. berghei liver stage with respect to Hep G cells” value in data set [6] is 0.46.

Turning to `C[n+]1c2ccccc2cc2[n-]c3c(I)cc(I)cc3c21` [Compound 6, 7,9-diiodocryptolepine], the IC50 in data set [1] (setting [7]) was found to be 1040 ± 220 nM; in data set [2], 130 ± 70 nM; in data set [3], 59 ± 13 nM; in data set [5], 28200 ± 4100 nM; in data set [6] it was 6130 ± 620 nM. Also, the IC90 in data set [3] amounted to 114 ± 11 nM. Besides, the selectivity ratio at 48 h in data set [4] is 478. Besides, in data set [6], the “Selectivity index (SI), P. berghei liver stage with respect to Hep G cells” value amounted to 4.6.
